The numbers were not newly measured in patent EP2743282B1, “Melamine-aldehyde-condensation product and method obtaining the same” (Borealis Agrolinz Melamine GmbH, priority 2012, dated 2014), which cites them from elsewhere.

SMILES strings stand for the structures. Converted amounts (≈) assume the structure as drawn.

The conditions of this data set: in water at 20 °C.
For `CNc1nc(NC)nc(N(C)C)n1` [N,N,N',N"-tetramethylmelamine, reference compound], the water solubility was 49000 µg/mL (≈ 269 mM). Consider `CN(C)c1nc(N)nc(N(C)C)n1` [N,N,N',N'-tetramethylmelamine], for which the water solubility was 400 µg/mL (≈ 2.2 mM). As for `CN(C)c1nc(N)nc(N)n1` [N,N-dimethylmelamine], the water solubility was 1200 µg/mL (≈ 7.78 mM).
